{"source": "paper PMC5218480", "about": "(PLoS ONE, 2017)", "test_system": "MV-4-11 cells", "assay": "Gene expression microarray analysis (Affymetrix PrimeView) and GSEA", "format": "cell-based, human", "design": "RFU PODN (11730768_x_at) / Fold change /veh PODN (11730768_x_at) / RFU LINC00158 (11744669_a_at) / Fold change /veh LINC00158 (11744669_a_at) / RFU DUSP10 (11751237_a_at) / Fold change /veh DUSP10 (11751237_a_at) / RFU ID3 (11757404_x_at) / Fold change /veh ID3 (11757404_x_at) / RFU PLEKHG5 (11737974_s_at) / Fold change /veh PLEKHG5 (11737974_s_at) / RFU LRRC4B (11730491_at) / Fold change /veh LRRC4B (11730491_at) / RFU GIMAP4 (11747438_a_at) / Fold change /veh GIMAP4 (11747438_a_at) / RFU KRT8 (11758183_x_at) / Fold change /veh KRT8 (11758183_x_at) / RFU CNN1 (11734310_a_at) / Fold change /veh CNN1 (11734310_a_at) / RFU VPS37D (11726825_at) / Fold change /veh VPS37D (11726825_at) / RFU C10orf10 (11716522_x_at) / Fold change /veh C10orf10 (11716522_x_at) / RFU KIR2DL2 /// KIR2DL4 /// KIR2DL5A /// KIR2DL5B /// KIR2DS1 /// KIR2DS2 /// KIR2DS3 /// KIR2DS4 /// KIR3DL3 /// KIR3DL3 /// KIR3DS1 (11738374_at) / Fold change /veh KIR2DL2 /// KIR2DL4 /// KIR2DL5A /// KIR2DL5B /// KIR2DS1 /// KIR2DS2 /// KIR2DS3 /// KIR2DS4 /// KIR3DL3 /// KIR3DL3 /// KIR3DS1 (11738374_at) / RFU C1QL1 (11718748_at) / Fold change /veh C1QL1 (11718748_at) / RFU TMPRSS4 (11747572_a_at) / Fold change /veh TMPRSS4 (11747572_a_at) / RFU HAMP (11756126_x_at) / Fold change /veh HAMP (11756126_x_at) / RFU RNFT2 (11725882_a_at) / Fold change /veh RNFT2 (11725882_a_at) / RFU NR4A2 (11747474_a_at) / Fold change /veh NR4A2 (11747474_a_at) / RFU ABCC12 (11746883_a_at) / Fold change /veh ABCC12 (11746883_a_at) / RFU TMEM136 (11760407_x_at) / Fold change /veh TMEM136 (11760407_x_at) / RFU CLDN22 /// WWC2 (11732394_at) / Fold change /veh CLDN22 /// WWC2 (11732394_at) / RFU HLA-DPB1 (11760878_x_at) / Fold change /veh HLA-DPB1 (11760878_x_at) / RFU SPINT1 (11716480_a_at) / Fold change /veh SPINT1 (11716480_a_at) / RFU GAP43 (11754022_s_at) / Fold change /veh GAP43 (11754022_s_at) / RFU A4GNT (11735810_at) / Fold change /veh A4GNT (11735810_at) / RFU PRB3 (11715151_x_at) / Fold change /veh PRB3 (11715151_x_at) / RFU TUBB4B (11761932_at) / Fold change /veh TUBB4B (11761932_at) / RFU CAPN14 (11732068_a_at) / Fold change /veh CAPN14 (11732068_a_at) / RFU TMCC2 (11721928_a_at) / Fold change /veh TMCC2 (11721928_a_at) / RFU IRGQ (11745062_a_at) / Fold change /veh IRGQ (11745062_a_at) / RFU FAM174B (11720279_a_at) / Fold change /veh FAM174B (11720279_a_at) / RFU TMPRSS4 (11748680_a_at) / Fold change /veh TMPRSS4 (11748680_a_at) / RFU FAM212B (11763350_a_at) / Fold change /veh FAM212B (11763350_a_at) / RFU PLEKHG5 (11743358_a_at) / Fold change /veh PLEKHG5 (11743358_a_at) / RFU ZSCAN30 (11745921_a_at) / Fold change /veh ZSCAN30 (11745921_a_at) / RFU CMKLR1 (11741424_a_at) / Fold change /veh CMKLR1 (11741424_a_at) / RFU LOC101060620 /// MAPK8IP1 (11723275_at) / Fold change /veh LOC101060620 /// MAPK8IP1 (11723275_at) / RFU SPTSSB (11747773_x_at) / Fold change /veh SPTSSB (11747773_x_at) / RFU PRSS12 (11739890_at) / Fold change /veh PRSS12 (11739890_at) / RFU BIN1 (11741810_x_at) / Fold change /veh BIN1 (11741810_x_at) / RFU WNT11 (11732464_a_at) / Fold change /veh WNT11 (11732464_a_at) / RFU C10orf10 (11716521_a_at) / Fold change /veh C10orf10 (11716521_a_at) / RFU C5orf56 (11738089_at) / Fold change /veh C5orf56 (11738089_at) / RFU CYB561 (11721691_x_at) / Fold change /veh CYB561 (11721691_x_at) / RFU ANKRD19P (11752326_a_at) / Fold change /veh ANKRD19P (11752326_a_at) / RFU OR2T12 /// OR2T33 /// OR2T8 (11738714_s_at) / Fold change /veh OR2T12 /// OR2T33 /// OR2T8 (11738714_s_at) / RFU VCAN (11748164_a_at) / Fold change /veh VCAN (11748164_a_at) / RFU JSRP1 (11732532_at) / Fold change /veh JSRP1 (11732532_at) / RFU KRTAP10-11 (11738290_x_at) / Fold change /veh KRTAP10-11 (11738290_x_at) / RFU MYO3A (11730013_a_at) / Fold change /veh MYO3A (11730013_a_at) / RFU EBF3 (11725865_a_at) / Fold change /veh EBF3 (11725865_a_at) / RFU CAMK2N1 (11719241_x_at) / Fold change /veh CAMK2N1 (11719241_x_at) / RFU C5orf56 (11738088_a_at) / Fold change /veh C5orf56 (11738088_a_at) / RFU OLFML3 (11715873_a_at) / Fold change /veh OLFML3 (11715873_a_at) / RFU LOC100653217 /// NTM (11731650_a_at) / Fold change /veh LOC100653217 /// NTM (11731650_a_at) / RFU MAPK11 (11762145_a_at) / Fold change /veh MAPK11 (11762145_a_at) / RFU FIZ1 (11724087_x_at) / Fold change /veh FIZ1 (11724087_x_at) / RFU OASL (11726364_x_at) / Fold change /veh OASL (11726364_x_at) / RFU SOX15 (11748057_x_at) / Fold change /veh SOX15 (11748057_x_at) / RFU CD79A (11719716_a_at) / Fold change /veh CD79A (11719716_a_at) / RFU HIST1H1D (11736915_at) / Fold change /veh HIST1H1D (11736915_at) / RFU CASKIN2 (11723855_a_at) / Fold change /veh CASKIN2 (11723855_a_at) / RFU LOC730098 (11760151_x_at) / Fold change /veh LOC730098 (11760151_x_at) / RFU OR4N2 (11742367_at) / Fold change /veh OR4N2 (11742367_at) / RFU PRRT2 (11749266_a_at) / Fold change /veh PRRT2 (11749266_a_at) / RFU SNX32 (11753110_a_at) / Fold change /veh SNX32 (11753110_a_at) / RFU CDHR5 (11726645_a_at) / Fold change /veh CDHR5 (11726645_a_at) / RFU RCAN1 (11760418_a_at) / Fold change /veh RCAN1 (11760418_a_at) / RFU FAM167A (11723789_a_at) / Fold change /veh FAM167A (11723789_a_at) / RFU FAM26E (11764081_at) / Fold change /veh FAM26E (11764081_at) / RFU ISYNA1 (11749810_s_at) / Fold change /veh ISYNA1 (11749810_s_at) / RFU ACY1 (11761880_at) / Fold change /veh ACY1 (11761880_at) / RFU 11764098_at / Fold change /veh 11764098_at / RFU SAMD14 (11745864_x_at) / Fold change /veh SAMD14 (11745864_x_at) / RFU NPB (11741838_a_at) / Fold change /veh NPB (11741838_a_at) / RFU TMPRSS6 (11731388_a_at) / Fold change /veh TMPRSS6 (11731388_a_at) / RFU KRTAP10-2 (11738614_at) / Fold change /veh KRTAP10-2 (11738614_at) / RFU ARHGAP8 /// PRR5-ARHGAP8 (11727945_x_at) / Fold change /veh ARHGAP8 /// PRR5-ARHGAP8 (11727945_x_at) / RFU KRTAP5-7 /// NADSYN1 (11734609_at) / Fold change /veh KRTAP5-7 /// NADSYN1 (11734609_at) / RFU RASL12 (11751679_a_at) / Fold change /veh RASL12 (11751679_a_at) / RFU CDKN2B (11736163_a_at) / Fold change /veh CDKN2B (11736163_a_at) / RFU PRF1 (11729649_at) / Fold change /veh PRF1 (11729649_at) / RFU, ZNF638 /// ZNF638-IT1 / Fold change vs veh, ZNF638 /// ZNF638-IT1 / RFU, PANK3 / Fold change vs veh, PANK3 / RFU, SH3YL1 / Fold change vs veh, SH3YL1 / RFU, ZEB2 / Fold change vs veh, ZEB2 / RFU, NRIP1 / Fold change vs veh, NRIP1 / RFU, PTTG1IP / Fold change vs veh, PTTG1IP / RFU, CAPN2 / Fold change vs veh, CAPN2 / RFU, MED14 / Fold change vs veh, MED14 / RFU, SNORA58 / Fold change vs veh, SNORA58 / RFU, C1orf63 / Fold change vs veh, C1orf63 / RFU, LRRFIP1 / Fold change vs veh, LRRFIP1 / RFU, NDUFAF7 / Fold change vs veh, NDUFAF7 / RFU, SLC12A2 / Fold change vs veh, SLC12A2 / RFU, IBTK / Fold change vs veh, IBTK / RFU, ESF1 / Fold change vs veh, ESF1 / Fold change vs veh, TMEM50B / RFU, TAOK1 / Fold change vs veh, TAOK1 / RFU, ACBD3 / Fold change vs veh, ACBD3 / RFU, TMA16 / Fold change vs veh, TMA16 / RFU, RWDD3 / Fold change vs veh, RWDD3 / RFU, BCAT1 / Fold change vs veh, BCAT1 / RFU, EDEM3 / Fold change vs veh, EDEM3 / RFU, TMEM33 / Fold change vs veh, TMEM33 / RFU, WDR75 / Fold change vs veh, WDR75 / RFU, AHCTF1 / Fold change vs veh, AHCTF1 / RFU, TFRC / Fold change vs veh, TFRC / RFU, ZDHHC17 / Fold change vs veh, ZDHHC17 / RFU, NOM1 / Fold change vs veh, NOM1 / RFU, ARL8B / Fold change vs veh, ARL8B / RFU, ZBTB11 / Fold change vs veh, ZBTB11 / RFU, TAMM41 / Fold change vs veh, TAMM41 / RFU, KIAA1704 /// LOC100996395 / Fold change vs veh, KIAA1704 /// LOC100996395 / RFU, ING1 / Fold change vs veh, ING1 / RFU, TRMT61B / Fold change vs veh, TRMT61B / RFU, FUBP3 / Fold change vs veh, FUBP3 / RFU, TP53 / Fold change vs veh, TP53 / RFU, TNKS2 / Fold change vs veh, TNKS2 / RFU, ZFP14 / Fold change vs veh, ZFP14 / RFU, ACTR2 / Fold change vs veh, ACTR2 / RFU, PPP3R1 / Fold change vs veh, PPP3R1 / RFU, PIK3R1 / Fold change vs veh, PIK3R1 / RFU, HNRNPA1 / Fold change vs veh, HNRNPA1 / RFU, RNF170 / Fold change vs veh, RNF170 / RFU, ZNF28 / Fold change vs veh, ZNF28 / RFU, RNGTT / Fold change vs veh, RNGTT / RFU, OGT / Fold change vs veh, OGT / RFU, BRD1 / Fold change vs veh, BRD1 / RFU, MARS / Fold change vs veh, MARS / RFU, ZNF655 / Fold change vs veh, ZNF655 / RFU, FAHD1 / Fold change vs veh, FAHD1 / RFU, BDP1 / Fold change vs veh, BDP1 / RFU, LRRCC1 / Fold change vs veh, LRRCC1 / RFU, ARID1A / Fold change vs veh, ARID1A / RFU, ZNF146 / Fold change vs veh, ZNF146 / RFU, ZNF330 / Fold change vs veh, ZNF330 / RFU, GPN3 / Fold change vs veh, GPN3 / RFU, C9orf123 / Fold change vs veh, C9orf123 / RFU, N4BP2L2 / Fold change vs veh, N4BP2L2 / RFU, ARFIP1 / Fold change vs veh, ARFIP1 / RFU, FAM179B / Fold change vs veh, FAM179B / RFU, BCL10 / Fold change vs veh, BCL10 / RFU, UHRF1BP1L / Fold change vs veh, UHRF1BP1L / RFU, BET1 / Fold change vs veh, BET1 / RFU, CNOT2 / Fold change vs veh, CNOT2 / RFU, ZNF268 / Fold change vs veh, ZNF268 / Fold change vs veh, ZNF507 / RFU, DGCR2 / Fold change vs veh, DGCR2 / RFU, WDSUB1 / Fold change vs veh, WDSUB1 / Fold change vs veh, HSP90B1 /// MIR3652 / RFU, ADSS / Fold change vs veh, ADSS / RFU, GK / Fold change vs veh, GK / RFU, ZNF148 / Fold change vs veh, ZNF148 / RFU, TAF9 / Fold change vs veh, TAF9 / RFU, SLC1A5 / Fold change vs veh, SLC1A5 / RFU, SLMO2 / Fold change vs veh, SLMO2 / RFU, ABCC4 / Fold change vs veh, ABCC4 / RFU, LOC101060439 /// RAP1B / Fold change vs veh, LOC101060439 /// RAP1B / RFU, RFX7 / Fold change vs veh, RFX7 / RFU, GTPBP10 / Fold change vs veh, GTPBP10 / RFU, CNEP1R1 / Fold change vs veh, CNEP1R1 / RFU, BIVM-ERCC5 /// ERCC5 / Fold change vs veh, BIVM-ERCC5 /// ERCC5 / RFU, ILF3 / Fold change vs veh, ILF3 / RFU 11762660_at / Fold change /veh 11762660_at / RFU VCAN (11757783_s_at) / Fold change /veh VCAN (11757783_s_at) / RFU DDX43 (11728927_at) / Fold change /veh DDX43 (11728927_at) / RFU KRT8 (11758188_x_at) / Fold change /veh KRT8 (11758188_x_at) / RFU NKD1 (11759106_at) / Fold change /veh NKD1 (11759106_at) / RFU SRD5A1 (11742802_a_at) / Fold change /veh SRD5A1 (11742802_a_at) / RFU TPSAB1 /// TPSB2 (11721975_s_at) / Fold change /veh TPSAB1 /// TPSB2 (11721975_s_at) / RFU GSTM3 (11746129_a_at) / Fold change /veh GSTM3 (11746129_a_at) / RFU IL23R (11737362_x_at) / Fold change /veh IL23R (11737362_x_at) / RFU TMEM51 (11727254_a_at) / Fold change /veh TMEM51 (11727254_a_at) / RFU PIWIL2 (11732686_x_at) / Fold change /veh PIWIL2 (11732686_x_at) / RFU ORM1 (11744905_x_at) / Fold change /veh ORM1 (11744905_x_at) / RFU CCDC152 (11743942_at) / Fold change /veh CCDC152 (11743942_at) / RFU ECM1 (11717891_a_at) / Fold change /veh ECM1 (11717891_a_at) / RFU IL23R (11748794_a_at) / Fold change /veh IL23R (11748794_a_at) / RFU TNFAIP8L3 (11732012_x_at) / Fold change /veh TNFAIP8L3 (11732012_x_at) / RFU MBOAT4 (11741988_at) / Fold change /veh MBOAT4 (11741988_at) / RFU 11764193_at / Fold change /veh 11764193_at / RFU TMEM53 (11763286_at) / Fold change /veh TMEM53 (11763286_at) / RFU MAGEB2 (11727129_at) / Fold change /veh MAGEB2 (11727129_at) / RFU TMEM200A (11744735_a_at) / Fold change /veh TMEM200A (11744735_a_at) / RFU CCDC152 (11751479_a_at) / Fold change /veh CCDC152 (11751479_a_at) / RFU FAM211A (11726209_a_at) / Fold change /veh FAM211A (11726209_a_at) / RFU RGS16 (11746705_a_at) / Fold change /veh RGS16 (11746705_a_at) / RFU VCAN (11755009_s_at) / Fold change /veh VCAN (11755009_s_at) / RFU RHOB (11743442_s_at) / Fold change /veh RHOB (11743442_s_at) / RFU RGS16 (11720943_a_at) / Fold change /veh RGS16 (11720943_a_at) / RFU RGS16 (11720944_at) / Fold change /veh RGS16 (11720944_at) / RFU, VPS4B / Fold change vs veh, VPS4B / RFU, CREB1 / Fold change vs veh, CREB1 / RFU, DNAJC13 / Fold change vs veh, DNAJC13 / RFU, GNAQ / Fold change vs veh, GNAQ / RFU, CDK5R1 / Fold change vs veh, CDK5R1 / RFU, ZRANB3 / Fold change vs veh, ZRANB3 / RFU, CUL4A / Fold change vs veh, CUL4A / RFU, CCNY / Fold change vs veh, CCNY / RFU, UFL1 / Fold change vs veh, UFL1 / RFU, COG3 / Fold change vs veh, COG3 / RFU, DIAPH2 / Fold change vs veh, DIAPH2 / RFU, SKA2 / Fold change vs veh, SKA2 / RFU, AFF3 / Fold change vs veh, AFF3 / RFU, LMF1 / Fold change vs veh, LMF1 / RFU, IPO11 / Fold change vs veh, IPO11 / RFU, DFFB / Fold change vs veh, DFFB / RFU, FOXP1 / Fold change vs veh, FOXP1 / RFU, CARD8 / Fold change vs veh, CARD8 / RFU, STRN3 / Fold change vs veh, STRN3 / RFU, ADK / Fold change vs veh, ADK / RFU, RASSF2 / Fold change vs veh, RASSF2 / RFU, WIPF1 / Fold change vs veh, WIPF1 / RFU, LARP1B / Fold change vs veh, LARP1B / RFU, RASA1 / Fold change vs veh, RASA1 / RFU, RB1 / Fold change vs veh, RB1 / RFU, PPFIA1 / Fold change vs veh, PPFIA1 / RFU, MAT2A / Fold change vs veh, MAT2A / RFU, CCT5 / Fold change vs veh, CCT5 / RFU, WDR92 / Fold change vs veh, WDR92 / RFU, CUX1 / Fold change vs veh, CUX1 / RFU, TTC7A / Fold change vs veh, TTC7A / RFU, TMEM135 / Fold change vs veh, TMEM135 / RFU, DEPTOR / Fold change vs veh, DEPTOR / RFU, CPM / Fold change vs veh, CPM / RFU, DNAJB6 / Fold change vs veh, DNAJB6 / RFU, CACNA2D3 / Fold change vs veh, CACNA2D3 / RFU, DTX4 / Fold change vs veh, DTX4 / RFU, TFCP2 / Fold change vs veh, TFCP2 / RFU, GMCL1 /// GMCL1P1 / Fold change vs veh, GMCL1 /// GMCL1P1 / RFU, AEBP2 / Fold change vs veh, AEBP2 / RFU, SNHG1 /// SNORD22 /// SNORD25 /// SNORD26 /// SNORD27 /// SNORD28 /// SNORD29 /// SNORD31 / Fold change vs veh, SNHG1 /// SNORD22 /// SNORD25 /// SNORD26 /// SNORD27 /// SNORD28 /// SNORD29 /// SNORD31 / Fold change (Aza/veh), C12orf56 (ProbeSet 11735607_a_at) / Fold change (ACY-1035/veh), C12orf56 (ProbeSet 11735607_a_at) / Fold change (Aza/veh), FGFR1OP (ProbeSet 11751329_s_at) / Fold change (ACY-1035/veh), FGFR1OP (ProbeSet 11751329_s_at) / Fold change (Aza/veh), VPS36 (ProbeSet 11739960_a_at) / Fold change (ACY-1035/veh), VPS36 (ProbeSet 11739960_a_at) / RFU SYPL1 (11715823_x_at) / Fold change /veh SYPL1 (11715823_x_at) / RFU IGFBP7 (11715501_s_at) / Fold change /veh IGFBP7 (11715501_s_at) / RFU REEP3 (11722064_at) / Fold change /veh REEP3 (11722064_at) / RFU IGLL1 (11728026_x_at) / Fold change /veh IGLL1 (11728026_x_at): dose or concentration left out as unconfirmed", "conditions": "ProbeSet 11755436_x_at; LIST B", "data": [{"compound": "Nc1ncn([C@@H]2O[C@H](CO)[C@@H](O)[C@H]2O)c(=O)n1", "note": "[azacitidine]", "values": [{"measurement": "RFU, ARID1A", "value": 63.57, "unit": "RFU"}]}]}
